Source: patent US7842802B2, “Vinorelbine derivatives” (priority 2003, dated 2010)
Read-outs that look alike come from different tables or passages of the source.

Legend:
BT-549 = experiment: NCI 60-cell line growth inhibition assay, BT-549; assay type: cell-based, human; details: Breast
Description: (§1) The following data in Table 4 summarize the growth inhibition properties of several compounds of the present invention against 60-human transformed cell lines.

CAKI-1 = experiment: NCI 60-cell line growth inhibition assay, CAKI-1; assay type: cell-based, human; details: Renal
Description: as §1

[1] = test system: HeLa S-3 human cervical carcinoma cell line; experiment: HeLa GI50 determination (SRB); assay type: cell-based; details: HeLa S-3, 2 days of treatment, SRB, read-out: HeLa Cells GI50
Procedure: Growth inhibition (GI50) values were measured on the human cervical carcinoma cell line, HeLa S-3, which were selected for growth on plastic. The HeLa cell assay was based on the description of Skehan et al., J. Natl. Cancer Inst., 82:1107-12 (1990), which is hereby incorporated by reference in its entirety. HeLa cells were plated at 2×10^4 cells/well in 96 well plates. One day later, a control plate was fixed by the addition of TCA to 5%. After five rinses with tap water, the plate was air-dried and stored at 4° C. Test compounds were added to the remaining plates at 10-fold dilutions. Two days later, all plates were fixed as described above. Cells were then stained by the addition of 100 μL per well of 0.4% sulforhodamine B (SRB) in 1% acetic acid for 30 min at 4° C. Wells were then quickly rinsed 5× with 1% acetic acid and allowed to air dry. The SRB was then solubilized by the addition of 100 μL per well of unbuffered 10 mM Tris base. Dye was quantified by measuring absorbance at 490 nm on a Molecular Devices microplate reader. Growth inhibition was calculated according to the following equation: GI=100×(T−T0)/(C−T0), where the optical density (OD) of the test well after 2 days of treatment was T, the OD of the wells in the control plate on day 0 was T0 and C was the OD of untreated wells. Plots of percent growth inhibition versus inhibitor concentration were used to determine the GI50.

NCI-H322M = experiment: NCI 60-cell line growth inhibition assay, NCI-H322M; assay type: cell-based, human; details: Non-Small Cell Lung
Description: as §1

786-0 = experiment: NCI 60-cell line growth inhibition assay, 786-0; assay type: cell-based, human; details: Renal
Description: as §1

A498 = experiment: NCI 60-cell line growth inhibition assay, A498; assay type: cell-based, human; details: Renal
Description: as §1

OVCAR-3 = experiment: NCI 60-cell line growth inhibition assay, OVCAR-3; assay type: cell-based, human; details: Ovarian
Description: as §1

HCT-116 = experiment: NCI 60-cell line growth inhibition assay, HCT-116; assay type: cell-based, human; details: Colon
Description: as §1

COLO 205 = experiment: NCI 60-cell line growth inhibition assay, COLO 205; assay type: cell-based; details: Homo sapiens, Colon
Description: as §1

EKVX = experiment: NCI 60-cell line growth inhibition assay, EKVX; assay type: cell-based; details: Homo sapiens, Non-Small Cell Lung
Description: as §1

HCC-2998 = experiment: NCI 60-cell line growth inhibition assay, HCC-2998; assay type: cell-based; details: Homo sapiens, Colon
Description: as §1

MOLT-4 = experiment: NCI 60-cell line growth inhibition assay, MOLT-4; assay type: cell-based; details: Homo sapiens, Leukemia
Description: as §1

OVCAR-5 = experiment: NCI 60-cell line growth inhibition assay, OVCAR-5; assay type: cell-based; details: Homo sapiens, Ovarian
Description: as §1

SK-MEL-5 = experiment: NCI 60-cell line growth inhibition assay, SK-MEL-5; assay type: cell-based; details: Homo sapiens, Melanoma
Description: as §1

SK-OV-3 = experiment: NCI 60-cell line growth inhibition assay, SK-OV-3; assay type: cell-based; details: Homo sapiens, Ovarian
Description: as §1

SNB-19 = experiment: NCI 60-cell line growth inhibition assay, SNB-19; assay type: cell-based; details: Homo sapiens, CNS
Description: as §1

OVCAR-4 = experiment: NCI 60-cell line growth inhibition assay, OVCAR-4; assay type: cell-based; details: Homo sapiens, Ovarian
Description: as §1

SK-MEL-28 = experiment: NCI 60-cell line growth inhibition assay, SK-MEL-28; assay type: cell-based; details: Homo sapiens, Melanoma
Description: as §1

Compound	GI50 (BT-549) [nM]	GI50 (CAKI-1) [nM]	GI50 [1] [nM]	GI50 (NCI-H322M) [nM]	GI50 (786-0) [nM]	GI50 (A498) [nM]	GI50 (OVCAR-3) [nM]	GI50 (HCT-116) [nM]	GI50 (COLO 205) [nM]	GI50 (EKVX) [nM]	GI50 (HCC-2998) [nM]	GI50 (MOLT-4) [nM]	GI50 (OVCAR-5) [nM]	GI50 ([1]; Homo sapiens, HeLa S3, 48 h) [nM]	GI50 (SK-MEL-5) [nM]	GI50 (SK-OV-3) [nM]	GI50 (SNB-19) [nM]	GI50 (OVCAR-4) [nM]	GI50 (SK-MEL-28) [nM]
11′-bromovinorelbine [Example 1]	< 10	< 10	5	< 10	< 10	< 10	< 10	< 10	–	–	–	–	–	–	–	–	–	–	–
CCC1=C[C@H]2CN(C1)Cc1c([nH]c3ccc(I)cc13)[C@@](C(=O)OC)(c1cc3c(cc1OC)N(C)[C@H]1[C@@](O)(C(=O)OC)[C@H](OC(C)=O)C4C(CC)=CCN5CC[C@]31[C@H]45)C2 (stereo partly shown) [Example 2, 11′-iodovinorelbine]	–	–	–	–	–	–	–	–	17.9	72.6	< 10	24.1	225	25	18.8	63.3	62.5	264	91.4
